According to PMC11002876, “KcsA-Kv1.x chimeras with complete ligand-binding sites provide improved predictivity for screening selective Kv1.x blockers” (The Journal of Biological Chemistry, 2024):
Like-named read-outs stand apart in the source and are kept apart here. Where a SMILES comes first, the peptide text is derived from it.

How the values were obtained:
[1] = molecular target: T1, KcsA-Kv1.3 T+F chimera (Streptomyces lividans, UniProt P0A334, A54D/A57S/G53D/G56T/I60S/L59F/L81M/Q58G/R52A/R64D/T61S/Y62I/Y82H); assay: Phage-binding competition assay, KcsA-Kv1.3 T+F; set-up: species or system human Kv1.3 turret and filter in Streptomyces lividans KcsA; conditions: for rank order of affinities, competition, KcsA-Kv1.3 T+F: Fig. 6F; for Rank, T+F chimera (Kv1.3): rank by competition IC50 among Vm24, HgTx1, KTX1
T1 construct: made in house; host or cells: E. coli C41(DE3) (pET45b)
T1 sequence (P0A334 1-160 R52A/G53D/A54D/G56T/A57S/Q58G/L59F/I60S/T61S/Y62I/R64D/L81M/Y82H): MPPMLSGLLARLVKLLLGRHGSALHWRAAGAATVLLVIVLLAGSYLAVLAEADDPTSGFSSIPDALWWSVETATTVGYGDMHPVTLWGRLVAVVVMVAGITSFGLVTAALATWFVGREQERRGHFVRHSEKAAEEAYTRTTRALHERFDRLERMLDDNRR
Experimental: Phage stock solutions were diluted to working concentration with phage resuspension buffer supplemented with 2 mM DDM. For protein immobilization, the following amounts were used in a final volume of 50 μl/well: wt KcsA, 0.1 μg; KcsA-Kv1.1 T-only, 0.005 μg; KcsA-Kv1.1 T+F, 0.02 μg; KcsA-Kv1.2 T-only, 0.01 μg; KcsA-Kv1.2 T+F, 0.1 μg; KcsA-Kv1.3 T-only, 0.01 μg; and KcsA-Kv1.3 T+F, 0.1 μg. Protein samples were diluted in 50 μl of storage buffer (20 mM Tris pH8.0, 300 mM KCl, 2 mM DDM) and were added to the designated wells of a Pierce Clear, 96-Well Nickel Coated Plate (15442, Thermo Fisher Scientific), then incubated for 1 h at room temperature on a horizontal shaker at 130 rpm. The plate was blocked for 1 h at room temperature with 180 μl/well TBS-BSA supplemented with 1 mM DDM. Following blocking, the wells were washed 4× with washing buffer (300 μl TBS-Tween, 0.1% v/v) using a Wellwash Versa microplate washer (Thermo Fisher Scientific); then 50 μl phage solution (in TBS-BSA-Tween, 0.1% v/v, 2 mM DDM) at determined phage concentration was added to the wells and incubated for 1 h at room temperature on a horizontal shaker. The plate was washed 4× with washing buffer, then 50 μl anti-M13 IgG HRP (MA5-36125, Invitrogen) diluted to 1:2500 in TBS-Tween (0.1% v/v) was added to the wells and incubated for 1 h at room temperature. The plate was washed again 4× with 300 μl/well washing buffer. Finally, 50 μl/well 1-Step Ultra TMB-ELISA solution (34028, Thermo Fisher Scientific) was added to the wells, and the developing signal was stopped with 50 μl 1M HCl after 5 to 10 min. The light absorbance signal was read at 450 nm with Byonoy absorbance 96 plate reader (Byonoy GmbH).
For protein immobilization, the following amounts were used in a final volume of 50 μl/well: KcsA-Kv1.1 T-only, 0.005 μg; KcsA-Kv1.1 T+F, 0.01 μg; KcsA-Kv1.2 T-only, 0.025 μg; KcsA-Kv1.2 T+F, 0.0125 μg; KcsA-Kv1.3 T-only, 0.01 μg; and KcsA-Kv1.3 T+F, 0.1 μg. Protein samples were diluted in storage buffer. Binding of given concentrations of relevant ligand-displaying phages quantified by light absorbance ([…]) were investigated in a similar manner as in phage ELISA-binding assay, while different concentrations of competing toxin test substances were applied simultaneously. The results were converted to percent inhibitions (percent displacement) of the indicator phage binding, and relative affinities of the tested toxins were assessed by plotting percent displacements against log concentrations and determining half maximal inhibitory concentrations (IC50) by sigmoidal curve fitting using “Sigmoidal dose-response (variable slope) with least squares method” algorithm in GraphPad Prism 8 using the following equation: Y=Bottom+Top−Bottom/1+10^(LogEC50−×)⋅HillSlope

[2] = tested on: human Kv1.3 channel (hKv1.3); assay type: cell-based; conditions: native peptides at 0.1 nM; human lymphocytes; Figs. 6A, S1
Experimental: Human Kv1.3 currents were recorded from activated peripheral blood mononuclear cells (see below) 3 to 4 days after activation. Heparinized human peripheral venous blood was obtained from healthy volunteers. Mononuclear cells were separated through Histopaque-1077 density gradient centrifugation. Collected cells were washed twice with Ca^2+- and Mg^2+-free Hanks’ solution containing 25 mM Hepes buffer, pH 7.4. Cells were cultured for 3 to 4 days in 24-well culture plates in a 5% CO2 incubator at 37 °C, in RPMI 1640 medium supplemented with 10% fetal calf serum (Sigma-Aldrich), 100 μg/ml penicillin, 100 μg/ml streptomycin, and 2 mM L-glutamine (density, 0.5 × 10^6 cells per ml). Phytohemagglutinin A (Sigma-Aldrich) was added to the medium at 10 μg/ml to amplify the Kv1.3 expression. Cells were washed gently twice with 2 ml of ECS for the patch-clamp experiments.
Conventional whole-cell patch-clamp electrophysiology was used to record ionic currents. Micropipettes were pulled from GC150F-7.5 borosilicate capillaries (Harvard Apparatus) with tip diameters between 0.5 and 1 μm resulting in a tip resistance of 2 to 8 MΩ in the extracellular (bath) solution. All measurements were carried out by using Axopatch 200B amplifier connected to a personal computer using Axon Digidata 1550A data acquisition hardware and Pclamp10.7 software (https://support.moleculardevices.com/s/article/Axon-pCLAMP-10-Electrophysiology-Data-Acquisition-Analysis-Software-Download-Page). The holding potential was −120 mV. Records were discarded when leak at the holding potential was >10% of peak current at the test potential. Experiments were performed at room temperature (20–24 °C). Before analysis, whole-cell current traces were corrected for ohmic leakage and digitally filtered with a three-point boxcar smoothing filter.
Solutions: all salts and components of the solutions were purchased from Sigma Aldrich. […]
Native peptides, phage-expressed peptides, and positive controls used for them were dissolved in ECS supplemented with 0.1 mg/ml bovine serum albumin (BSA; Sigma-Aldrich Hungary). Bath perfusion around the measured cell with different extracellular solutions was achieved using a gravity flow micro perfusion system using a rate of 0.5 ml/min. […]
Voltage protocols: For measurement of Kv1.1 to 1.3 currents, voltage steps to +50 mV were applied from a holding potential of −120 mV and the peak current was measured every 15 s. […] The remaining current fraction at a given molar concentration was calculated as I/I0, where I0 is the peak current in the absence and I is the peak current at equilibrium block or […] after ∼2 min perfusion by the investigated peptide/phage.

[3] = HgTx1-phage competition, T+F KcsA-Kv1.3, value given in figure, sigmoidal fit to means of three replicates, read-out: IC50 (Fig. 6F)

SMILES	IC50 [1, 3]	rank order of affinities, competition, KcsA-Kv1.3 T+F ([1]; HgTx1-phage competition)	Rank, T+F chimera (Kv1.3) [1]	rank order of blocking of native Kv1.3 [2]	IC50 ([1]; displacement of HgTx1-phage, KcsA-Kv1.3 T+F 0.1 μg/well on nickel-coated plate, phage ELISA absorbance, mean ± SD (n = 3), read-out: IC50, T+F chimera (Kv1.3))
CC[C@H](C)[C@@H]1NC(=O)CNC(=O)[C@H](Cc2ccccc2)NC(=O)[C@H](CCC(N)=O)NC(=O)[C@H](C)NC(=O)[C@H](CCCCN)NC(=O)[C@@H]2CSSC[C@@H](C(=O)N[C@@H](Cc3ccc(O)cc3)C(=O)N3CCC[C@H]3C(=O)N[C@@H](Cc3c[nH]cn3)C(=O)O)NC(=O)[C@H](CCCCN)NC(=O)[C@@H]3CSSC[C@H](NC(=O)[C@H](CCC(N)=O)NC(=O)[C@H](CCCCN)NC(=O)[C@@H]4CCCN4C(=O)[C@H](CO)NC(=O)[C@H]([C@@H](C)O)NC(=O)[C@@H](NC(=O)[C@H](CCCCN)NC(=O)[C@@H](NC(=O)[C@H](CC(=O)O)NC(=O)[C@@H](NC(=O)[C@@H](NC(=O)[C@@H](N)[C@@H](C)O)C(C)C)[C@@H](C)CC)C(C)C)CSSC[C@H](NC(=O)[C@H](CCCCN)NC(=O)[C@H](C)NC(=O)CNC(=O)[C@H](C)NC(=O)[C@H](CCCNC(=N)N)NC1=O)C(=O)N[C@@H](CCSC)C(=O)N[C@@H](CC(N)=O)C(=O)NCC(=O)N[C@@H](CCCCN)C(=O)N3)C(=O)N[C@@H](CC(C)C)C(=O)N1CCC[C@H]1C(=O)N1CCC[C@H]1C(=O)N2 [HgTx1, Hongotoxin-1] (HELM PEPTIDE1{T.V.I.D.V.K.C.T.S.P.K.Q.C.L.P.P.C.K.A.Q.F.G.I.R.A.G.A.K.C.M.N.G.K.C.K.C.Y.P.H}$PEPTIDE1,PEPTIDE1,7:R3-29:R3|PEPTIDE1,PEPTIDE1,13:R3-34:R3|PEPTIDE1,PEPTIDE1,17:R3-36:R3$$$V2.0; N-terminus and C-terminus assumed)	0.107 nM	Vm24 > HgTx1 > KTX1	2	Vm24 > HgTX1 > KTX1	–
CC[C@H](C)[C@H](NC(=O)[C@H](CCC(=O)O)NC(=O)[C@@H](NC(=O)CN)C(C)C)C(=O)N[C@@H](CC(N)=O)C(=O)N[C@H](C(=O)N[C@@H](CCCCN)C(=O)N[C@H]1CSSC[C@@H]2NC(=O)[C@H](CCCCN)NC(=O)CNC(=O)[C@H](Cc3ccccc3)NC(=O)[C@H](CCCNC(=N)N)NC(=O)[C@H](CCSC)NC(=O)CNC(=O)[C@H](C)NC(=O)[C@H](CC(=O)O)NC(=O)[C@H](CCCCN)NC(=O)[C@@H]3CSSC[C@@H](C(=O)N[C@H](C(=O)N4CCC[C@H]4C(=O)N[C@@H](CCCCN)C(=O)O)[C@@H](C)O)NC(=O)[C@H](Cc4c[nH]cn4)NC(=O)[C@H](CSSC[C@H](NC(=O)[C@H](CCC(N)=O)NC(=O)[C@@H]4CCCN4C(=O)[C@H](CO)NC(=O)CNC(=O)[C@H](CO)NC1=O)C(=O)N[C@@H](CC(C)C)C(=O)N[C@@H](CCCCN)C(=O)N1CCC[C@H]1C(=O)N3)NC(=O)[C@H](CCCCN)NC(=O)[C@H](CCCNC(=N)N)NC(=O)[C@H](CC(N)=O)NC(=O)[C@H](CCSC)NC2=O)C(C)C [KTX1, Kaliotoxin-1]	–	Vm24 > HgTx1 > KTX1	3	Vm24 > HgTX1 > KTX1	98.2 nM
CC[C@H](C)[C@H](NC(=O)[C@H](C)NC(=O)[C@H](C)NC(=O)[C@H](C)N)C(=O)N[C@@H](CO)C(=O)N[C@H]1CSSC[C@@H]2NC(=O)[C@H](CCCCN)NC(=O)CNC(=O)[C@H](CC(N)=O)NC(=O)[C@H](CCCCN)NC(=O)[C@@H]3CSSC[C@@H](C(N)=O)NC(=O)[C@H](Cc4ccc(O)cc4)NC(=O)[C@H](Cc4ccc(O)cc4)NC(=O)[C@@H]4CSSC[C@H](NC(=O)[C@H](CCCCN)NC(=O)[C@@H]5CCCN5C(=O)[C@@H]5CCCN5C(=O)[C@H](CSSC[C@H](NC(=O)[C@H](CCCCN)NC(=O)[C@H](CCCNC(=N)N)NC(=O)[C@H](CC(N)=O)NC(=O)[C@H](CCSC)NC2=O)C(=O)N[C@@H](CCCCN)C(=O)N4)NC(=O)[C@H](CCC(=O)O)NC(=O)[C@@H]2CCCN2C(=O)[C@H](CO)NC(=O)CNC(=O)[C@H](C(C)C)NC1=O)C(=O)N[C@@H](CCCNC(=N)N)C(=O)N[C@@H](C)C(=O)N[C@@H](CCC(N)=O)C(=O)NCC(=O)N3 [Vm24, Vm24 toxin]	0.0359 nM	Vm24 > HgTx1 > KTX1	1	Vm24 > HgTX1 > KTX1	–
